Experiments:
Lck (h) = Lck (h) (Homo sapiens, UniProt P06239); assay: Lck Human  Kinase Enzymatic Radiometric Assay; format: biochemical; conditions: read-out: Lck IC50 nM Range*
Method in brief: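 Substrate 33P-incorporation measured by scintillation counting after spotting on P30 filtermat and phosphoric acid washes. Human Lck reacted 40 min at RT in 50 mM Tris pH 7.5 with 10 mM MgAcetate, [gamma-33P]-ATP, 250 uM Cdc2 peptide, 0.1 mM EGTA and 0.1 mM Na3VO4.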

[1] = target: T1, Recombinant (1-346) HPK1 (h) (Homo sapiens, UniProt Q92918); assay: HPK1 Human STE Kinase Enzymatic Radiometric Assay; format: biochemical; conditions: read-out: HPK1 IC50 nM Range*
T1 construct: Recombinant (1-346) HPK1 (h) is incubated with 8 mM MOPS pH 7.0
T1 sequence (Q92918 1-346): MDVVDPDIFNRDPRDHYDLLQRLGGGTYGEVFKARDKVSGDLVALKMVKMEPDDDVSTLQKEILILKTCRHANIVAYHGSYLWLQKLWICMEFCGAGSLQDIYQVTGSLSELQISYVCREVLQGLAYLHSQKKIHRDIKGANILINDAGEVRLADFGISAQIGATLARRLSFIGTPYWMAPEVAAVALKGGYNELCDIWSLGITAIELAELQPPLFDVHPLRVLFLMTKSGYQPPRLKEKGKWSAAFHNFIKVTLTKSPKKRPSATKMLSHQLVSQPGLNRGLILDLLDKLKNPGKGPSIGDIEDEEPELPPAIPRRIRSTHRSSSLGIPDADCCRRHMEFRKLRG
Method: A stock solution of 10 mM of test compound is prepared in DMSO. The compound plate was prepared by 3-fold and 9-point serial dilutions. […] The reaction is initiated by The addition of the Mg/ATP mix. After incubation for 40 minutes at RT, the reaction is stopped by the addition of phosphoric acid to a concentration of 0.5%.

Lck (h), sequence (P06239 whole entry): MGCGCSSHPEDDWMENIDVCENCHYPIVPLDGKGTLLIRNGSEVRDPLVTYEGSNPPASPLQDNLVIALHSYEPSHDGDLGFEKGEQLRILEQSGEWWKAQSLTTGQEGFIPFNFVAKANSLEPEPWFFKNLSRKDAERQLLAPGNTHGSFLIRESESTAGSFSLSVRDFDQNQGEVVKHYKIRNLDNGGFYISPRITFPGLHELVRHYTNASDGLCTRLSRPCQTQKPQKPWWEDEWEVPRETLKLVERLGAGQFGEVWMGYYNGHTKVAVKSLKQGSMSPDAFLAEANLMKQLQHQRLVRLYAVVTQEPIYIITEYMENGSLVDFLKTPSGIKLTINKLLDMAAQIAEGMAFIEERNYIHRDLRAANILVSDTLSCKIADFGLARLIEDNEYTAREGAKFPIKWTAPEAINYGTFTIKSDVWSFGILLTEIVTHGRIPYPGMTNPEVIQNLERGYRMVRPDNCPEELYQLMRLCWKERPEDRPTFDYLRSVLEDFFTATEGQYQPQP

SMILES | IC50 (Lck (h)) [nM] | IC50 [1] [nM]
CC(=O)N1CCC(Oc2ccc(-c3cc(-c4ccc5c(c4)CCNC5=O)c(N)nc3F)cc2F)CC1 [I-290, 6-(5-(4-((1-acetylpiperidin-4-yl)oxy)-3-fluorophenyl)-2-amino-6-fluoropyridin-3-yl)-3,4-dihydroisoquinolin-1(2H)-one] | 0.1 to 10 | 0.1 to 10
CC(C)N1CCC(Oc2ccc(-c3cc(-c4cc5c(cc4F)C(=O)NCC5)c(N)nc3F)cc2C#N)CC1 [I-292, 5-(6-amino-2-fluoro-5-(7-fluoro-1-oxo-1,2,3,4-tetrahydroisoquinolin-6-yl)pyridin-3-yl)-2-((1-isopropylpiperidin-4-yl)oxy)benzonitrile] | > 1000 | 0.1 to 10
N#Cc1cc(-c2cc(-c3cc4c(cc3F)C(=O)NCC4)c(N)nc2F)ccc1OC1CCN(CC(F)(F)F)CC1 [I-293, 5-(6-amino-2-fluoro-5-(7-fluoro-1-oxo-1,2,3,4-tetrahydroisoquinolin-6-yl)pyridin-3-yl)-2-((1-(2,2,2-trifluoroethyl)piperidin-4-yl)oxy)benzonitrile] | > 1000 | 11 to 100
COC1(c2ccc(-c3cc(-c4ccc5c(c4)CCNC5=O)c(N)nc3F)cc2)CCN(C(C)C)CC1 [I-294, 6-(2-amino-6-fluoro-5-(4-(1-isopropyl-4-methoxypiperidin-4-yl)phenyl)pyridin-3-yl)-3,4-dihydroisoquinolin-1(2H)-one] | > 1000 | 0.1 to 10
CC(C)N1CC=C(c2ccc(-c3cc(-c4cc5c(cc4F)C(=O)NCC5)c(N)nc3F)cc2)CC1 [I-295, 6-(2-amino-6-fluoro-5-(4-(1-isopropyl-1,2,3,6-tetrahydropyridin-4-yl)phenyl)pyridin-3-yl)-7-fluoro-3,4-dihydroisoquinolin-1(2H)-one] | > 1000 | 0.1 to 10
CCN1CC=C(c2ccc(-c3cc(-c4cc5c(cc4F)C(=O)NCC5)c(N)nc3F)cc2)CC1 [I-296, 6-(2-amino-5-(4-(1-ethyl-1,2,3,6-tetrahydropyridin-4-yl)phenyl)-6-fluoropyridin-3-yl)-7-fluoro-3,4-dihydroisoquinolin-1(2H)-one] | > 1000 | 0.1 to 10
Nc1nc(F)c(-c2ccc(C3=CCN(CC4CC4)CC3)cc2)cc1-c1cc2c(cc1F)C(=O)NCC2 [I-297, 6-(2-amino-5-(4-(1-(cyclopropylmethyl)-1,2,3,6-tetrahydropyridin-4-yl)phenyl)-6-fluoropyridin-3-yl)-7-fluoro-3,4-dihydroisoquinolin-1(2H)-one] | > 1000 | 0.1 to 10
CNCC1Cc2cc(-c3cc(-c4ccc(Cl)cc4)c(F)nc3N)ccc2C(=O)N1 (stereo not drawn) [I-298, 6-(2-amino-5-(4-chlorophenyl)-6-fluoropyridin-3-yl)-3-((methylamino)methyl)-3,4-dihydroisoquinolin-1(2H)-one] | > 1000 | 11 to 100
CC(C)N1CCc2cc(-c3cc(-c4cc5c(cc4F)C(=O)NCC5)c(N)nc3F)ccc2C1 [I-299, 6-(2-amino-6-fluoro-5-(2-isopropyl-1,2,3,4-tetrahydroisoquinolin-6-yl)pyridin-3-yl)-7-fluoro-3,4-dihydroisoquinolin-1(2H)-one] | > 1000 | 0.1 to 10
COCCN1CCc2cc(-c3cc(-c4cc5c(cc4F)C(=O)NCC5)c(N)nc3F)ccc2C1 [I-300, 6-(2-amino-6-fluoro-5-(2-(2-methoxyethyl)-1,2,3,4-tetrahydroisoquinolin-6-yl)pyridin-3-yl)-7-fluoro-3,4-dihydroisoquinolin-1(2H)-one] | > 1000 | 0.1 to 10
CC(C)N1C[C@H]2C[C@@]2(c2ccc(-c3cc(-c4cc(F)c5c(c4)CCNC5=O)c(N)nc3F)cc2)C1 [I-301, 6-(2-amino-6-fluoro-5-(4-((1R,5S)-3-isopropyl-3-azabicyclo[3.1.0]hexan-1-yl)phenyl)pyridin-3-yl)-8-fluoro-3,4-dihydroisoquinolin-1(2H)-one] | > 1000 | 0.1 to 10
CC(C)N1CCC(c2ccc(-c3cc(-c4cc(F)c5c(c4)CCNC5=O)c(N)nc3F)cc2)CC1 [I-302, 6-(2-amino-6-fluoro-5-(4-(1-isopropylpiperidin-4-yl)phenyl)pyridin-3-yl)-8-fluoro-3,4-dihydroisoquinolin-1(2H)-one] | 101 to 1000 | 0.1 to 10
COCCN1CCC(Oc2ccc(-c3cc(-c4cc5c(cc4F)C(=O)NCC5)c(N)nc3F)cc2C#N)CC1 [I-303, 5-(6-amino-2-fluoro-5-(7-fluoro-1-oxo-1,2,3,4-tetrahydroisoquinolin-6-yl)pyridin-3-yl)-2-((1-(2-methoxyethyl)piperidin-4-yl)oxy)benzonitrile] | > 1000 | 11 to 100
COc1cc(OC2CCN(C(C)=O)CC2)ccc1-c1cc(-c2ccc3c(c2)CCNC3=O)c(N)nc1F [I-304, 6-(5-(4-((1-acetylpiperidin-4-yl)oxy)-2-methoxyphenyl)-2-amino-6-fluoropyridin-3-yl)-3,4-dihydroisoquinolin-1(2H)-one] | > 1000 | 0.1 to 10
COc1cc(-c2cc(-c3ccc4c(c3)CCNC4=O)c(N)nc2F)ccc1OC1CCN(C(C)=O)CC1 [I-305, 6-(5-(4-((1-acetylpiperidin-4-yl)oxy)-3-methoxyphenyl)-2-amino-6-fluoropyridin-3-yl)-3,4-dihydroisoquinolin-1(2H)-one] | > 1000 | 0.1 to 10
CC(=O)N1CCC(Oc2ccc(-c3cc(-c4ccc5c(c4)CCNC5=O)c(N)nc3F)c3c2OCO3)CC1 [I-306, 6-(5-(7-((1-acetylpiperidin-4-yl)oxy)benzo[d][1,3]dioxol-4-yl)-2-amino-6-fluoropyridin-3-yl)-3,4-dihydroisoquinolin-1(2H)-one] | > 1000 | 0.1 to 10
Nc1nc(F)c(-c2ccc(N3CCN(CC4CC4)CC3)cc2)cc1-c1cc(F)c2c(c1)CCNC2=O [I-307, 6-(2-amino-5-(4-(4-(cyclopropylmethyl)piperazin-1-yl)phenyl)-6-fluoropyridin-3-yl)-8-fluoro-3,4-dihydroisoquinolin-1(2H)-one] | > 1000 | 0.1 to 10
Nc1nc(F)c(-c2ccc(C3CCN(CC4CC4)CC3)cc2)cc1-c1cc(F)c2c(c1)CCNC2=O [I-308, 6-(2-amino-5-(4-(1-(cyclopropylmethyl)piperidin-4-yl)phenyl)-6-fluoropyridin-3-yl)-8-fluoro-3,4-dihydroisoquinolin-1(2H)-one] | > 1000 | 0.1 to 10
Nc1nc(F)c(-c2ccc(N3CCOCC3)cc2)cc1-c1cc(F)c2c(c1)CCNC2=O [I-309, 6-(2-amino-6-fluoro-5-(4-morpholinophenyl)pyridin-3-yl)-8-fluoro-3,4-dihydroisoquinolin-1(2H)-one] | > 1000 | 0.1 to 10
CC(C)N1CCN(c2ccc(-c3cc(-c4ccc5c(c4)CC(CN(C)C)NC5=O)c(N)nc3F)cc2)CC1 (stereo not drawn) [I-310, 6-(2-amino-6-fluoro-5-(4-(4-isopropylpiperazin-1-yl)phenyl)pyridin-3-yl)-3-((dimethylamino)methyl)-3,4-dihydroisoquinolin-1(2H)-one] | > 1000 | 11 to 100
CN(C)CC1Cc2cc(-c3cc(-c4ccc(N5CCOCC5)cc4)c(F)nc3N)ccc2C(=O)N1 (stereo not drawn) [I-311, 6-(2-amino-6-fluoro-5-(4-morpholinophenyl)pyridin-3-yl)-3-((dimethylamino)methyl)-3,4-dihydroisoquinolin-1(2H)-one] | > 1000 | 11 to 100
